Laboratory results taken from patent US20240208912A1 (Mirati Therapeutics, Inc., priority 2021, published 2024).

Legend:
PRMT5/MEP50 complex = target: T1, PRMT5/MEP50 complex (Homo sapiens, UniProt O14744); experiment: PRMT5:MEP50 HotSpot Assay (full-length histone H2A substrate, plus and minus MTA); type: biochemical; details: IC50 + 2 μM MTA, in the presence of 2 μM MTA
T1 construct: purchased Reaction Biology Corporation
In short: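 Radiometric HotSpot format using recombinant full-length histone H2A as substrate, run with and without MTA. Reactions were stopped and spotted onto filter paper. Tritiated H2A was quantified by scintillation counting.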

[1] = tested on: HCT116 homozygous MTAP knockout cells; experiment: Proliferation assay (CellTiter-Glo, 10 days) in HCT116 homozygous MTAP knockout cells; type: cell-based; details: CellTiter-Glo after 10 days of treatment, read-out: Proliferation IC50 (nM) HCT116 MTAP_KO
In short: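 MTAP-null HCT116 clone made by CRISPR/Cas9 knockout of both alleles, tested beside parental cells. Cells dosed the day after seeding, split 1:10 on day 6 into fresh medium with the same compound level, and read on day 11 by CellTiter-Glo. IC50 taken after 10 days of exposure.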

T1 sequence (O14744 2-637 limits assumed): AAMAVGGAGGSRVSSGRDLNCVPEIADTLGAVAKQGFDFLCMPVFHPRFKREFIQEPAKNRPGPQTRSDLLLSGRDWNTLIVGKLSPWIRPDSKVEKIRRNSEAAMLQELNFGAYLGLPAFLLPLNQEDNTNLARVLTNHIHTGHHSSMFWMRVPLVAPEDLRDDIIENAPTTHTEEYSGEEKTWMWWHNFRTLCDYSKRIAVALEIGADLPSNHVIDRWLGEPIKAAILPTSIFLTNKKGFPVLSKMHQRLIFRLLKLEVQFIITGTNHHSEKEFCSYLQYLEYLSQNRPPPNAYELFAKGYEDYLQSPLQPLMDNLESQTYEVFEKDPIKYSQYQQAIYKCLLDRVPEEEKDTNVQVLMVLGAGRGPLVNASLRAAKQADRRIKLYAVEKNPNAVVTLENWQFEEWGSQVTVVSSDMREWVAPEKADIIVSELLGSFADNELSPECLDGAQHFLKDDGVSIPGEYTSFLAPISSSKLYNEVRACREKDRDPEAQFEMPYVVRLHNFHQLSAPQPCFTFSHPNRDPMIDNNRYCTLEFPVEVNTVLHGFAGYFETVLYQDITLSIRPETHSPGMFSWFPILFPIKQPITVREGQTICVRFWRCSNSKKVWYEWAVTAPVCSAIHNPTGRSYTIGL
T1 sequence (Q9BQA1 2-342 partner limits assumed): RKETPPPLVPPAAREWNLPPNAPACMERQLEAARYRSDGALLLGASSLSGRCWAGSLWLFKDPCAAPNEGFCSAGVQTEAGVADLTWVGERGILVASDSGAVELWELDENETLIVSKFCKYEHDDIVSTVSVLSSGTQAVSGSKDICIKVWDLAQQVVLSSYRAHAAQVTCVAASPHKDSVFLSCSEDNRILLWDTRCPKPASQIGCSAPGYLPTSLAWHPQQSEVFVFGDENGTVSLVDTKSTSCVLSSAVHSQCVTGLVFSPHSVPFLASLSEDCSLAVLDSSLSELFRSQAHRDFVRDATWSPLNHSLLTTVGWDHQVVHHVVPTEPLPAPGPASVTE

Structure (SMILES)	IC50 (PRMT5/MEP50 complex) [nM]	IC50 [1] [nM]
Cn1ncc(-c2ccc3c(=O)[nH]nc(CN)c3c2)c1-c1c(F)ccc(CC2CC2)c1C#N (single isomer, unassigned) [Example 16-30, (M)-2-(4-(4-(aminomethyl)-1-oxo-1,2-dihydrophthalazin-6-yl)-1-methyl-1H-pyrazol-5-yl)-6-(cyclopropylmethyl)-3-fluorobenzonitrile]	36.4	17
Cn1ncc(-c2ccc3c(=O)[nH]nc(CN)c3c2)c1-c1c(F)cc2ncc(Cl)cc2c1C#N (single isomer, unassigned) [Example 16-31, (M)-6-[4-[4-(aminomethyl)-1-oxo-2H-phthalazin-6-yl]-2-methyl-pyrazol-3-yl]-3-chloro-7-fluoro-quinoline-5-carbonitrile]	19.3	16
Cn1ncc(-c2ccc3c(=O)[nH]nc(CN)c3c2)c1-c1c(F)cc2ncc(Cl)cc2c1C#N (single isomer, unassigned) [Example 16-32, (P)-6-[4-[4-(aminomethyl)-1-oxo-2H-phthalazin-6-yl]-2-methyl-pyrazol-3-yl]-3-chloro-7-fluoro-quinoline-5-carbonitrile]	195	458
Cn1ncc(-c2ccc3c(=O)[nH]nc(CN)c3c2)c1-c1c(F)c(Cl)c2c(c1C#N)OCCC2 (single isomer, unassigned) [Example 16-39, (P)-7-(4-(4-(aminomethyl)-1-oxo-1,2-dihydrophthalazin-6-yl)-1-methyl-1H-pyrazol-5-yl)-5-chloro-6-fluorochroman-8-carbonitrile]	366	517
Cn1ncc(-c2ccc3c(=O)[nH]nc(CN)c3c2)c1-c1c(F)c(Cl)c2c(c1C#N)OCCC2 (single isomer, unassigned) [Example 16-40, (M)-7-(4-(4-(aminomethyl)-1-oxo-1,2-dihydrophthalazin-6-yl)-1-methyl-1H-pyrazol-5-yl)-5-chloro-6-fluorochroman-8-carbonitrile]	60.1	12
Cc1cc(-c2cnn(C)c2-c2c(F)cc3ncc(Cl)cc3c2C#N)cc2c(CN)n[nH]c(=O)c12 (single isomer, unassigned) [Example 16-49, (P)-6-[4-[4-(aminomethyl)-8-methyl-1-oxo-2H-phthalazin-6-yl]-2-methyl-pyrazol-3-yl]-3-chloro-7-fluoro-quinoline-5-carbonitrile]	166	80
Cc1cc(-c2cnn(C)c2-c2c(F)cc3ncc(Cl)cc3c2C#N)cc2c(CN)n[nH]c(=O)c12 (single isomer, unassigned) [Example 16-50, (M)-6-[4-[4-(aminomethyl)-8-methyl-1-oxo-2H-phthalazin-6-yl]-2-methyl-pyrazol-3-yl]-3-chloro-7-fluoro-quinoline-5-carbonitrile]	36.4	9
Cn1ncc(-c2ccc3c(=O)[nH]nc(CN)c3c2)c1-c1c(C#N)cc2ccccc2c1F (single isomer, unassigned) [Example 16-53, (P)-3-[4-[4-(aminomethyl)-1-oxo-2H-phthalazin-6-yl]-2-methyl-pyrazol-3-yl]-4-fluoro-naphthalene-2-carbonitrile]	157	752
Cn1ncc(-c2ccc3c(=O)[nH]nc(CN)c3c2)c1-c1c(C#N)cc2ccccc2c1F (single isomer, unassigned) [Example 16-54, (M)-3-[4-[4-(aminomethyl)-1-oxo-2H-phthalazin-6-yl]-2-methyl-pyrazol-3-yl]-4-fluoro-naphthalene-2-carbonitrile]	9.19	82
Cn1ncc(-c2cc(Cl)c3c(=O)[nH]nc(CN)c3c2)c1-c1c(F)c(Cl)c2ccccc2c1C#N (single isomer, unassigned) [Example 16-57, (P)-2-[4-[4-(aminomethyl)-8-chloro-1-oxo-2H-phthalazin-6-yl]-2-methyl-pyrazol-3-yl]-4-chloro-3-fluoro-naphthalene-1-carbonitrile]	253	339
Cn1ncc(-c2cc(Cl)c3c(=O)[nH]nc(CN)c3c2)c1-c1c(F)c(Cl)c2ccccc2c1C#N (single isomer, unassigned) [Example 16-58, (M)-2-[4-[4-(aminomethyl)-8-chloro-1-oxo-2H-phthalazin-6-yl]-2-methyl-pyrazol-3-yl]-4-chloro-3-fluoro-naphthalene-1-carbonitrile]	4.61	15
Cc1c(F)c(-c2c(-c3cc(Cl)c4c(=O)[nH]nc(CN)c4c3)cnn2C)c(C#N)c2ccccc12 (single isomer, unassigned) [Example 16-59, (P)-2-[4-[4-(aminomethyl)-8-chloro-1-oxo-2H-phthalazin-6-yl]-2-methyl-pyrazol-3-yl]-3-fluoro-4-methyl-naphthalene-1-carbonitrile]	318	215
Cc1c(F)c(-c2c(-c3cc(Cl)c4c(=O)[nH]nc(CN)c4c3)cnn2C)c(C#N)c2ccccc12 (single isomer, unassigned) [Example 16-60, (M)-2-[4-[4-(aminomethyl)-8-chloro-1-oxo-2H-phthalazin-6-yl]-2-methyl-pyrazol-3-yl]-3-fluoro-4-methyl-naphthalene-1-carbonitrile]	14.7	39
Cn1ncc(-c2cc(Cl)c3c(=O)[nH]nc(CN)c3c2)c1-c1c(F)cc2ncc(Cl)cc2c1C#N (single isomer, unassigned) [Example 16-61, (P)-6-[4-[4-(aminomethyl)-8-chloro-1-oxo-2H-phthalazin-6-yl]-2-methyl-pyrazol-3-yl]-3-chloro-7-fluoro-quinoline-5-carbonitrile]	217	80
Cn1ncc(-c2cc(Cl)c3c(=O)[nH]nc(CN)c3c2)c1-c1c(F)cc2ncc(Cl)cc2c1C#N (single isomer, unassigned) [Example 16-62, (M)-6-[4-[4-(aminomethyl)-8-chloro-1-oxo-2H-phthalazin-6-yl]-2-methyl-pyrazol-3-yl]-3-chloro-7-fluoro-quinoline-5-carbonitrile]	28.7	7
C[C@H]1C[C@@H]1Oc1ccc(F)c(-c2c(-c3ccc4c(=O)[nH]nc(CN)c4c3)cnn2C)c1C#N (single isomer, unassigned) [Example 16-67]	269	241
C[C@H]1C[C@@H]1Oc1ccc(F)c(-c2c(-c3ccc4c(=O)[nH]nc(CN)c4c3)cnn2C)c1C#N (single isomer, unassigned) [Example 16-68]	52.4	41
Cn1ncc(-c2ccc3c(=O)[nH]nc(CN)c3c2)c1-c1c(C#N)ccc2c1COC2 (single isomer, unassigned) [Example 16-69, (M)-4-[4-[4-(aminomethyl)-1-oxo-2H-phthalazin-6-yl]-2-methyl-pyrazol-3-yl]-1,3-dihydroisobenzofuran-5-carbonitrile]	6540	10200
Cn1ncc(-c2ccc3c(=O)[nH]nc(CN)c3c2)c1-c1c(C#N)ccc2c1COC2 (single isomer, unassigned) [Example 16-70, (P)-4-[4-[4-(aminomethyl)-1-oxo-2H-phthalazin-6-yl]-2-methyl-pyrazol-3-yl]-1,3-dihydroisobenzofuran-5-carbonitrile]	542	462
